Measurements from US20080279791A1, “Use of Isoeugenol Methyl Ester as an Agent Against Bad Breath” (SYMRISE GMBH & CO. KG, priority 2004, published 2008).
In brackets after ≈: the same amount, converted by molar mass. One block for each compound: values may come before it.

Tests used:
Type in all cases: cell-based
[1] = system: fresh morning saliva; experiment: In-vitro test to reduce bad breath (medium inoculated with saliva, incubated, sniffed by panel)
Method: A sterile liquid medium inoculated with fresh morning saliva is incubated for a few days at 37° C. and then sniffed by a panel of testers.
As a control for the tests, Triclosan® (5-chloro-2-(2,4-dichlorophenoxy)phenol) was added to inoculated samples in a concentration of 0.05%.

[2] = system: Streptococcus mutans; experiment: Minimum inhibiting concentration, serial-dilution test
Method: (§1) The minimum inhibiting concentration (MIC) of isoeugenol methyl ether was determined in a serial-dilution test against various bacteria.

[3] = system: Veilonella parvula; experiment: as above
Method: as §1

[4] = system: Prevotella intermedia; experiment: as above
Method: as §1

[5] = system: Pseudomonas aeruginosa; experiment: as above
Method: as §1

[6] = system: Porphyromonas gingivalis; experiment: as above
Method: as §1

[7] = system: Escherichia coli; experiment: as above
Method: as §1

[8] = system: Fusobacterium nucleatum; experiment: as above
Method: as §1

[9] = system: Staphylococcus aureus; experiment: as above
Method: as §1

[10] = system: total number of bacteria in the samples of saliva; experiment: Total number of bacteria in samples of saliva; settings: concentration of 1000 ppm

Structure (SMILES): Oc1cc(Cl)ccc1Oc1ccc(Cl)cc1Cl [Triclosan®, 5-chloro-2-(2,4-dichlorophenoxy)phenol, reference compound]
odour after the incubation period ([1]; 0.05% added to inoculated samples): the same faint odour of medium as the uninoculated samples

MIC [2]: > 1000 µg/mL
MIC [3]: 250 µg/mL (≈ 1400 µM)
MIC [4]: 500 µg/mL (≈ 2810 µM)
MIC [5]: > 1000 µg/mL
MIC [6]: 500 µg/mL (≈ 2810 µM)
MIC [7]: > 1000 µg/mL
MIC [8]: 250 µg/mL (≈ 1400 µM)
MIC [9]: > 1000 µg/mL
Structure (SMILES): CC=Cc1ccc(OC)c(OC)c1 (racemic) [isoeugenol methyl ether, 1,2-dimethoxy-4-propenyl benzene]
Type [2]: No action up to 1000 ppm
Type ([3]; Veilonella parvula, 250 ppm): bacteriostatic action
Type ([4]; 500 ppm): bactericidal action
Type [5]: No action up to 1000 ppm
Type of action ([6]; 500 ppm): effectiveness
Type [7]: No action up to 1000 ppm
Type ([8]; 250 ppm): bacteriostatic action
Type [9]: No action up to 1000 ppm
reduction of the total number of bacteria in saliva samples [10]: no significant reduction
odour after the incubation period ([1]; 0.01% added to inoculated samples): no odour
odour at sensory assessment ([1]; 0.05% added to the inoculated medium just one hour before the sensory assessment): an unpleasant mixed odour of bad breath and a faint isoeugenol methyl ether note
odour after the incubation period ([1]; concentrations of significantly less than 0.01%): a changed characteristic odour or a mixed odour was discernible in some cases
minimum effective concentration ([1]; no odour after incubation of inoculated samples): 0.01%
